Earlier results as cited in US8987322B2, “Pharmaceutical formulations for carrier-mediated transport statins and uses thereof” (Circ Pharma Research and Development Limited, priority 2003, dated 2015).

Columns and labels:
[1] = biological target: T1, HMG-CoA reductase (Homo sapiens, UniProt P04035)
T1 sequence (P04035 1-888): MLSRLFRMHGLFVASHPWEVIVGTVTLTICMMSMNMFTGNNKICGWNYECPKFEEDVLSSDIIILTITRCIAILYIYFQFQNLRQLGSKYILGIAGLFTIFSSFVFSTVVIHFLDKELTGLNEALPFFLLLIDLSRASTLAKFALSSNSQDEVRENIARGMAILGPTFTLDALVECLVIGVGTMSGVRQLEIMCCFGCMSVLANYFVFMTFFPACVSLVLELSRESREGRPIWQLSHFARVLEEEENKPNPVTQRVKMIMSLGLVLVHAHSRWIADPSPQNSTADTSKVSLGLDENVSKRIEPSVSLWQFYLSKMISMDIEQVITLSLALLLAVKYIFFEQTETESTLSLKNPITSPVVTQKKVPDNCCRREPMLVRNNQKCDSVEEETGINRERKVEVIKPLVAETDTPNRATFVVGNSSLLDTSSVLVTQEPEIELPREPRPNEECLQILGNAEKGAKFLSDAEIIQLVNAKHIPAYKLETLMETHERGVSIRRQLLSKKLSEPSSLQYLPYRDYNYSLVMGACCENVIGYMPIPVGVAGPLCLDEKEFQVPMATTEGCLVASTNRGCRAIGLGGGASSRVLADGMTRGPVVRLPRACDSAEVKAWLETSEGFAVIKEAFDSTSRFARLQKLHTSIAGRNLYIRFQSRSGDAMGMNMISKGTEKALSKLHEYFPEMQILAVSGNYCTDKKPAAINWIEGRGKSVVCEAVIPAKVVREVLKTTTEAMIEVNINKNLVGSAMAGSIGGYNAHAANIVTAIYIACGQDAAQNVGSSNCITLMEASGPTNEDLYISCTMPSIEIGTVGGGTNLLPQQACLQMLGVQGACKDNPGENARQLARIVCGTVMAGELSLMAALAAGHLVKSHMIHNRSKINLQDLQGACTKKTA

[2] = not given; remark: listed apart in the source
[3] = like that found in the stomach
[4] = system: rat hepatocytes; conditions: White (2002), read-out: IC50, inhibition of sterol synthesis
[5] = not given; remark: listed apart in the source
[6] = system: LDL-C, HDL-C and triglyceride levels; conditions: Malinowski (1998)

SMILES	share of the inhibitory activity due to the parent compound ([1]; White (2002)) [%]	water solubility class as defined in the U.S. Pharmacopeia (2002)	clearance through biliary excretion ([2]; Cheng-Lai (2003)) [%]	excreted in the urine ([2]; Cheng-Lai (2003)) [%]	hepatic extraction (share of the absorbed dose extracted by the liver) ([2]; Igel et al. (2002))	dose dependence of Cmax and AUC ([2]; doses ranging from 5 to 80 mg)	elimination half-life (t1/2) ([2]; in vivo) [h]	effect of food on absorption ([2]; presence of food)	stability in an acidic environment [3]	IC50 [4] [nM]	adverse effect at high doses ([5]; 80 mg and higher, phase III clinical trials)	tolerability in humans ([5]; doses ranging from 1 to 40 mg)	share of atorvastatin's inhibitory activity accounted for by its o-hydroxylated and p-hydroxylated metabolites [1]	duration of HMG-CoA reductase inhibition ([1]; due to the inhibitory activity of metabolites) [h]	reduction of LDL-C levels [6]	fraction of drug absorbed from the intestine taken up by the liver ([2]; first-pass) [%]	fraction of orally administered drug absorbed from the intestine ([2]; oral)	systemic availability of active inhibitors (parent drug and its metabolites) ([2]; oral) [%]
CC(C)c1nc(N(C)S(C)(=O)=O)nc(-c2ccc(F)cc2)c1/C=C/[C@@H](O)C[C@@H](O)CC(=O)O (single isomer, unassigned) [rosuvastatin]	90	sparingly soluble (“sparingly soluble” refers to an aqueous solubility that ranges from about 1/30 to about 1/100 (mg/ml))	90	10	up to 90%	relatively linear relationship	20	overall extent of absorption remains constant	stable in acidic environments	0.16	associated with myopathy	well tolerated	–	–	–	–	–	–
CC(C)c1c(C(=O)Nc2ccccc2)c(-c2ccccc2)c(-c2ccc(F)cc2)n1CC[C@@H](O)C[C@@H](O)CC(=O)O [atorvastatin]	–	–	–	–	–	–	–	–	–	–	–	–	approximately 70%	20 to 30	40-60%	≥ 70	about 30%	30
CC[C@H](C)C(=O)O[C@H]1C[C@H](O)C=C2C=C[C@H](C)[C@H](CC[C@@H](O)C[C@@H](O)CC(=O)O)[C@H]21 [pravastatin]	–	–	–	–	–	–	–	–	unstable in an acidic environment	–	–	–	–	–	–	–	–	–
